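Values below derive from 48-hour exposures of cells grown in 96-well plates, with endpoints linearly interpolated between the two concentrations bracketing the appropriate inhibition level. At the GI50, growth is halved.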 Activity calls are given as the source filed them. No stated cut-off is given here; in the data, active = GI50 up to about 1.1 µM and inactive = higher.
Key:
Experiment in all cases: inhibition of tumour cell growth, NCI panel, 48 h
MOLT-4 = tested on: MOLT-4
MCF7 = tested on: MCF7
BT-549 = tested on: BT-549
T47D = tested on: T47D
SNB-19 = tested on: SNB-19
CCRF-CEM = tested on: CCRF-CEM
SK-MEL-28 = tested on: SK-MEL-28
SK-OV-3 = tested on: SK-OV-3
HL-60 = tested on: HL-60
UO-31 = tested on: UO-31
NCI-H460 = tested on: NCI-H460
NCI-H226 = tested on: NCI-H226
HCT-116 = tested on: HCT-116
KM12 = tested on: KM12
NCI-H522 = tested on: NCI-H522
DU-145 = tested on: DU-145
LOX IMVI = tested on: LOX IMVI
COLO 205 = tested on: COLO 205
U-251 = tested on: U-251

SMILES	GI50 (MOLT-4)	GI50 (MCF7)	GI50 (BT-549)	GI50 (T47D)	GI50 (SNB-19)	GI50 (CCRF-CEM)	GI50 (SK-MEL-28)	GI50 (SK-OV-3)	GI50 (HL-60)	GI50 (UO-31)	GI50 (NCI-H460)	GI50 (NCI-H226)	GI50 (HCT-116)	GI50 (KM12)	GI50 (NCI-H522)	GI50 (DU-145)	GI50 (LOX IMVI)	GI50 (COLO 205)	GI50 (U-251)
COC(=O)/C(C#N)=C1\NC(=O)CC(c2ccccc2)C1C#N (configuration not stated)	> 100 µM (inactive)	> 100 µM (inactive)	> 100 µM (inactive)	> 100 µM (inactive)	> 100 µM (inactive)	> 100 µM (inactive)	> 100 µM (inactive)	> 100 µM (inactive)	> 100 µM (inactive)	> 100 µM (inactive)	> 100 µM (inactive)	> 100 µM (inactive)	> 100 µM (inactive)	> 100 µM (inactive)	> 100 µM (inactive)	> 100 µM (inactive)	> 100 µM (inactive)	> 100 µM (inactive)	–
NNC(=O)CSc1nnc(CCCCCCCCc2nnc(SCC(=O)NN)o2)o1	> 100 µM (inactive)	> 100 µM (inactive)	> 100 µM (inactive)	> 100 µM (inactive)	> 100 µM (inactive)	> 100 µM (inactive)	> 100 µM (inactive)	> 100 µM (inactive)	> 100 µM (inactive)	> 100 µM (inactive)	> 100 µM (inactive)	> 100 µM (inactive)	> 100 µM (inactive)	> 100 µM (inactive)	> 100 µM (inactive)	> 100 µM (inactive)	> 100 µM (inactive)	> 100 µM (inactive)	> 100 µM (inactive)
CC1(Cc2cc3c(cc2C2(c4ccc([N+](=O)[O-])cc4)OCCO2)OCO3)OCCO1	32.7 µM (inactive)	51.8 µM (inactive)	29.6 µM (inactive)	> 100 µM (inactive)	> 100 µM (inactive)	49.3 µM (inactive)	> 100 µM (inactive)	> 100 µM (inactive)	> 100 µM (inactive)	34.3 µM (inactive)	59.8 µM (inactive)	45 µM (inactive)	> 100 µM (inactive)	72.3 µM (inactive)	24.7 µM (inactive)	> 100 µM (inactive)	> 100 µM (inactive)	67.6 µM (inactive)	71.3 µM (inactive)
COc1cc(/C=C/c2ccccn2)cc(OC)c1OC	> 10 µM (inactive)	> 10 µM (inactive)	> 10 µM (inactive)	> 10 µM (inactive)	> 10 µM (inactive)	> 10 µM (inactive)	> 10 µM (inactive)	> 10 µM (inactive)	> 10 µM (inactive)	> 10 µM (inactive)	> 10 µM (inactive)	> 10 µM (inactive)	> 10 µM (inactive)	> 10 µM (inactive)	> 10 µM (inactive)	> 10 µM (inactive)	> 10 µM (inactive)	> 10 µM (inactive)	> 10 µM (inactive)
COc1ccc2nc3ccc(OC)cc3c(SCCCl)c2c1	2.79 µM (inactive)	2 µM (inactive)	51.4 µM (inactive)	15.2 µM (inactive)	32.4 µM (inactive)	2.75 µM (inactive)	31.7 µM (inactive)	> 74 µM (inactive)	3.28 µM (inactive)	32 µM (inactive)	33.9 µM (inactive)	> 48.4 µM (inactive)	6.22 µM (inactive)	17.5 µM (inactive)	3.03 µM (inactive)	21 µM (inactive)	5.98 µM (inactive)	> 39.1 µM (inactive)	18 µM (inactive)
CCOC(=O)[C@H](O)[C@@H](O)C(=O)NCc1ccc(C(=O)c2ccccc2)cc1	> 100 µM (inactive)	> 100 µM (inactive)	> 100 µM (inactive)	> 100 µM (inactive)	> 100 µM (inactive)	> 100 µM (inactive)	> 100 µM (inactive)	> 100 µM (inactive)	> 100 µM (inactive)	> 100 µM (inactive)	> 100 µM (inactive)	> 100 µM (inactive)	> 100 µM (inactive)	> 100 µM (inactive)	> 100 µM (inactive)	> 100 µM (inactive)	> 100 µM (inactive)	> 100 µM (inactive)	> 100 µM (inactive)
COc1ccccc1C1C2=C(COC2=O)Oc2cc3c(cc21)OCO3 (configuration not stated)	1.59 µM (inactive)	1.67 µM (inactive)	66.2 µM (inactive)	2.32 µM (inactive)	3.19 µM (inactive)	2.13 µM (inactive)	4.73 µM (inactive)	3.46 µM (inactive)	0.44 µM (active)	3.56 µM (inactive)	3.64 µM (inactive)	5.31 µM (inactive)	1.87 µM (inactive)	1.33 µM (inactive)	0.619 µM (active)	3.39 µM (inactive)	2.27 µM (inactive)	1.78 µM (inactive)	3.66 µM (inactive)
O=C1c2cc3c(cc2CC12Cc1cc4c(cc1C2=O)CCC4)CCC3	> 100 µM (inactive)	> 100 µM (inactive)	> 100 µM (inactive)	> 100 µM (inactive)	> 100 µM (inactive)	> 100 µM (inactive)	> 100 µM (inactive)	> 100 µM (inactive)	> 100 µM (inactive)	> 100 µM (inactive)	> 100 µM (inactive)	> 100 µM (inactive)	> 100 µM (inactive)	> 100 µM (inactive)	> 100 µM (inactive)	> 100 µM (inactive)	> 100 µM (inactive)	> 100 µM (inactive)	> 100 µM (inactive)
CCO/C=C1\SC(=S)N(c2ccc(OCC)cc2)C1=O	43.1 µM (inactive)	75.5 µM (inactive)	> 100 µM (inactive)	28.9 µM (inactive)	> 100 µM (inactive)	54 µM (inactive)	> 100 µM (inactive)	> 100 µM (inactive)	> 100 µM (inactive)	54.5 µM (inactive)	> 100 µM (inactive)	69.7 µM (inactive)	> 100 µM (inactive)	50.8 µM (inactive)	67.3 µM (inactive)	51.4 µM (inactive)	83.6 µM (inactive)	> 100 µM (inactive)	48 µM (inactive)
CSC(SC)=C1C(=O)NN=C1C	> 100 µM (inactive)	> 100 µM (inactive)	> 100 µM (inactive)	> 100 µM (inactive)	> 100 µM (inactive)	> 100 µM (inactive)	> 100 µM (inactive)	> 100 µM (inactive)	> 100 µM (inactive)	> 100 µM (inactive)	> 100 µM (inactive)	> 100 µM (inactive)	> 100 µM (inactive)	> 100 µM (inactive)	47 µM (inactive)	> 100 µM (inactive)	> 100 µM (inactive)	> 100 µM (inactive)	> 100 µM (inactive)
CN(C)NC(=S)Nc1ccccc1Br	> 100 µM (inactive)	> 100 µM (inactive)	> 100 µM (inactive)	> 100 µM (inactive)	> 100 µM (inactive)	> 100 µM (inactive)	> 100 µM (inactive)	> 100 µM (inactive)	> 100 µM (inactive)	> 100 µM (inactive)	> 100 µM (inactive)	> 100 µM (inactive)	> 100 µM (inactive)	> 100 µM (inactive)	> 100 µM (inactive)	> 100 µM (inactive)	> 100 µM (inactive)	> 100 µM (inactive)	> 100 µM (inactive)
Cc1ccc2c(=O)c(C(=O)NNC(=S)NC3CCCCC3)c[nH]c2n1	32.7 µM (inactive)	83.6 µM (inactive)	71.3 µM (inactive)	46.9 µM (inactive)	> 100 µM (inactive)	99.5 µM (inactive)	77.8 µM (inactive)	–	46.9 µM (inactive)	> 100 µM (inactive)	80 µM (inactive)	23.9 µM (inactive)	99.5 µM (inactive)	56.8 µM (inactive)	51.6 µM (inactive)	> 100 µM (inactive)	51.3 µM (inactive)	64.6 µM (inactive)	65.9 µM (inactive)
CC(=O)N1N=C(N)CC1=O	> 100 µM (inactive)	> 100 µM (inactive)	> 100 µM (inactive)	> 100 µM (inactive)	> 100 µM (inactive)	> 100 µM (inactive)	> 100 µM (inactive)	> 100 µM (inactive)	> 100 µM (inactive)	> 100 µM (inactive)	> 100 µM (inactive)	> 100 µM (inactive)	> 100 µM (inactive)	> 100 µM (inactive)	> 100 µM (inactive)	> 100 µM (inactive)	> 100 µM (inactive)	> 100 µM (inactive)	> 100 µM (inactive)
NCCNCCCCCCNC(=O)c1cccc2cc3ccccc3nc12	0.838 µM (active)	1.1 µM (active)	11.4 µM (inactive)	5.13 µM (inactive)	2.67 µM (inactive)	1.03 µM (active)	5.65 µM (inactive)	–	1.39 µM (inactive)	5.66 µM (inactive)	0.871 µM (active)	1.95 µM (inactive)	2.15 µM (inactive)	2 µM (inactive)	1.42 µM (inactive)	0.632 µM (active)	1.47 µM (inactive)	2.75 µM (inactive)	1.64 µM (inactive)
CC(NP(=O)(c1ccccc1)c1ccccc1)c1ccccc1 (configuration not stated)	> 100 µM (inactive)	> 100 µM (inactive)	> 100 µM (inactive)	> 100 µM (inactive)	> 100 µM (inactive)	> 100 µM (inactive)	> 100 µM (inactive)	> 100 µM (inactive)	> 100 µM (inactive)	> 100 µM (inactive)	> 100 µM (inactive)	> 100 µM (inactive)	> 100 µM (inactive)	> 100 µM (inactive)	> 100 µM (inactive)	> 100 µM (inactive)	> 100 µM (inactive)	> 100 µM (inactive)	> 100 µM (inactive)
